Assay results from PubChem BioAssay AID2060906 (Molecular Pharmacology Branch, DTP, NCI, 2025).

Test system: 485176-168-R4-J1-PDC complex spheroid growth
Test: Anticancer human tumor 485176-168-R4-J1-PDC patient-derived pancreatic adenocarcinoma cell line growth inhibition [RAS]
Conditions: for IC50: curve of first compound; for viability, T/C: stronger effect = lower value; active = viability on the fitted dose curve at most 10% of control; inactive = the rest
In short: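 Multi-cell-type spheroids: tumor cells plus HUVEC endothelial cells and mesenchymal stem cells. RAS-pathway inhibitors were combined with targeted agents, each dosed in half-log steps down from clinical Cmax, or from 10 microM when Cmax was unknown.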

[1] = second compound 0.00316 µM, first compound 0.0316 µM
[2] = second compound 0.00316 µM, first compound 0.1 µM
[3] = second compound 0.01 µM, first compound 0.0316 µM
[4] = second compound 0.01 µM, first compound 0.1 µM
[5] = second compound 0.0316 µM, first compound 0.0316 µM
[6] = second compound 0.0316 µM, first compound 0.1 µM
[7] = second compound 0.1 µM, first compound 0.0316 µM
[8] = second compound 0.1 µM, first compound 0.1 µM
[9] = second compound 0.316 µM, first compound 0.0316 µM
[10] = second compound 0.316 µM, first compound 0.1 µM
[11] = second compound 1 µM, first compound 0.0316 µM
[12] = second compound 1 µM, first compound 0.1 µM
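Also: spheroids exposed to compounds for seven days before readout.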
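For viability, T/C in this document: luminescence viability expressed relative to DMSO vehicle wells set as 100%.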

CC(C)NCC(C(=O)N1CCN(c2ncnc3c2C(C)CC3O)CC1)c1ccc(Cl)cc1 (centres undefined) + C=CC(=O)N1CCN(c2nc(OCC3CCCN3C)nc3c(F)c(-c4nc(N)cc(C)c4C(F)(F)F)c(Cl)cc23)C(C)C1
inactive: viability, T/C [1] 93.7% | viability, T/C [2] 97.9% | viability, T/C (second compound 0.00316 µM, first compound 0.316 µM) 78% | viability, T/C (second compound 0.00316 µM, first compound 1 µM) 57.4% | viability, T/C (second compound 0.00316 µM, first compound 3.16 µM) 42.8% | viability, T/C (second compound 0.00316 µM, first compound 10 µM) 35.3% | viability, T/C [3] 104% | viability, T/C [4] 83.3% | viability, T/C (second compound 0.01 µM, first compound 0.316 µM) 79% | viability, T/C (second compound 0.01 µM, first compound 1 µM) 62.4% | viability, T/C (second compound 0.01 µM, first compound 3.16 µM) 43.8% | viability, T/C (second compound 0.01 µM, first compound 10 µM) 34.2% | viability, T/C [5] 101% | viability, T/C [6] 83.5% | viability, T/C (second compound 0.0316 µM, first compound 0.316 µM) 70.7% | viability, T/C (second compound 0.0316 µM, first compound 1 µM) 53.2% | viability, T/C (second compound 0.0316 µM, first compound 3.16 µM) 45.3% | viability, T/C (second compound 0.0316 µM, first compound 10 µM) 30.5% | viability, T/C [7] 109% | viability, T/C [8] 82.7% | viability, T/C (second compound 0.1 µM, first compound 0.316 µM) 69.2% | viability, T/C (second compound 0.1 µM, first compound 1 µM) 55% | viability, T/C (second compound 0.1 µM, first compound 3.16 µM) 45.2% | viability, T/C (second compound 0.1 µM, first compound 10 µM) 29.9% | viability, T/C [9] 106% | viability, T/C [10] 102% | viability, T/C (second compound 0.316 µM, first compound 0.316 µM) 79.3% | viability, T/C (second compound 0.316 µM, first compound 1 µM) 65.2% | viability, T/C (second compound 0.316 µM, first compound 3.16 µM) 46.1% | viability, T/C (second compound 0.316 µM, first compound 10 µM) 27.3% | viability, T/C [11] 108% | viability, T/C [12] 93.9% | viability, T/C (second compound 1 µM, first compound 0.316 µM) 79.1% | viability, T/C (second compound 1 µM, first compound 1 µM) 50.5% | viability, T/C (second compound 1 µM, first compound 3.16 µM) 41% | viability, T/C (second compound 1 µM, first compound 10 µM) 28.9%
1340 nM: IC50 (second compound 1 µM)
1690 nM: IC50 (second compound 0.00316 µM)
1540 nM: IC50 (second compound 0.1 µM)
2420 nM: IC50 (second compound 0.01 µM)
2370 nM: IC50 (second compound 0.316 µM)
1630 nM: IC50 (second compound 0.0316 µM)

CC(C)n1nc(-c2ccc3oc(N)nc3c2)c2c(N)ncnc21 + C=CC(=O)N1CCN(c2nc(OCC3CCCN3C)nc3c(F)c(-c4nc(N)cc(C)c4C(F)(F)F)c(Cl)cc23)C(C)C1
27.2 nM: IC50 (second compound 0.01 µM)
20.1 nM: IC50 (second compound 0.00316 µM)
23.6 nM: IC50 (second compound 1 µM)
16.6 nM: IC50 (second compound 0.0316 µM)
21.5 nM: IC50 (second compound 0.316 µM)
inactive: viability, T/C (second compound 0.00316 µM, first compound 0.000316 µM) 97.2% | viability, T/C (second compound 0.00316 µM, first compound 0.001 µM) 92.6% | viability, T/C (second compound 0.00316 µM, first compound 0.00316 µM) 84.2% | viability, T/C (second compound 0.00316 µM, first compound 0.01 µM) 66.1% | viability, T/C [1] 39.3% | viability, T/C [2] 27% | viability, T/C (second compound 0.01 µM, first compound 0.000316 µM) 81.8% | viability, T/C (second compound 0.01 µM, first compound 0.001 µM) 88.8% | viability, T/C (second compound 0.01 µM, first compound 0.00316 µM) 91.8% | viability, T/C (second compound 0.01 µM, first compound 0.01 µM) 67.5% | viability, T/C [3] 48.6% | viability, T/C [4] 18.8% | viability, T/C (second compound 0.0316 µM, first compound 0.000316 µM) 89.9% | viability, T/C (second compound 0.0316 µM, first compound 0.001 µM) 90% | viability, T/C (second compound 0.0316 µM, first compound 0.00316 µM) 81.2% | viability, T/C (second compound 0.0316 µM, first compound 0.01 µM) 54.7% | viability, T/C [5] 42.3% | viability, T/C [6] 23.8% | viability, T/C (second compound 0.1 µM, first compound 0.000316 µM) 109% | viability, T/C (second compound 0.1 µM, first compound 0.001 µM) 89.5% | viability, T/C (second compound 0.1 µM, first compound 0.00316 µM) 84.7% | viability, T/C (second compound 0.1 µM, first compound 0.01 µM) 74.5% | viability, T/C [7] 56% | viability, T/C [8] 23.3% | viability, T/C (second compound 0.316 µM, first compound 0.000316 µM) 92% | viability, T/C (second compound 0.316 µM, first compound 0.001 µM) 78.3% | viability, T/C (second compound 0.316 µM, first compound 0.00316 µM) 85.7% | viability, T/C (second compound 0.316 µM, first compound 0.01 µM) 62.6% | viability, T/C [9] 43.6% | viability, T/C [10] 30.1% | viability, T/C (second compound 1 µM, first compound 0.000316 µM) 81.1% | viability, T/C (second compound 1 µM, first compound 0.001 µM) 92.6% | viability, T/C (second compound 1 µM, first compound 0.00316 µM) 82% | viability, T/C (second compound 1 µM, first compound 0.01 µM) 72% | viability, T/C [11] 42.5% | viability, T/C [12] 22.2%
35.5 nM: IC50 (second compound 0.1 µM)
